Test results taken from patent US20100331297A1, “MODULATION OF PROTEIN TRAFFICKING” (FOLDRX PHARMACEUTICALS, INC., priority 2007, published 2010).

What was measured:
ΔF508 CFTR [1] = biological target: T1, ΔF508 CFTR (Homo sapiens, UniProt P13569, DEL508-508); assay: Corrector activity, YFP halide (iodide) quenching assay in FRT cells expressing ΔF508 CFTR; assay type: cell-based; parameters: expressed in transfected cells; host or cells: Fischer rat thyroid (FRT) cells; settings: FRT cells ΔF508 CFTR/YFP, 24 hours with compound at 37° C., forskolin and genistein; read-out: Corrector EC50
T1 sequence (P13569 with tags, fused parts or gaps DEL508-508): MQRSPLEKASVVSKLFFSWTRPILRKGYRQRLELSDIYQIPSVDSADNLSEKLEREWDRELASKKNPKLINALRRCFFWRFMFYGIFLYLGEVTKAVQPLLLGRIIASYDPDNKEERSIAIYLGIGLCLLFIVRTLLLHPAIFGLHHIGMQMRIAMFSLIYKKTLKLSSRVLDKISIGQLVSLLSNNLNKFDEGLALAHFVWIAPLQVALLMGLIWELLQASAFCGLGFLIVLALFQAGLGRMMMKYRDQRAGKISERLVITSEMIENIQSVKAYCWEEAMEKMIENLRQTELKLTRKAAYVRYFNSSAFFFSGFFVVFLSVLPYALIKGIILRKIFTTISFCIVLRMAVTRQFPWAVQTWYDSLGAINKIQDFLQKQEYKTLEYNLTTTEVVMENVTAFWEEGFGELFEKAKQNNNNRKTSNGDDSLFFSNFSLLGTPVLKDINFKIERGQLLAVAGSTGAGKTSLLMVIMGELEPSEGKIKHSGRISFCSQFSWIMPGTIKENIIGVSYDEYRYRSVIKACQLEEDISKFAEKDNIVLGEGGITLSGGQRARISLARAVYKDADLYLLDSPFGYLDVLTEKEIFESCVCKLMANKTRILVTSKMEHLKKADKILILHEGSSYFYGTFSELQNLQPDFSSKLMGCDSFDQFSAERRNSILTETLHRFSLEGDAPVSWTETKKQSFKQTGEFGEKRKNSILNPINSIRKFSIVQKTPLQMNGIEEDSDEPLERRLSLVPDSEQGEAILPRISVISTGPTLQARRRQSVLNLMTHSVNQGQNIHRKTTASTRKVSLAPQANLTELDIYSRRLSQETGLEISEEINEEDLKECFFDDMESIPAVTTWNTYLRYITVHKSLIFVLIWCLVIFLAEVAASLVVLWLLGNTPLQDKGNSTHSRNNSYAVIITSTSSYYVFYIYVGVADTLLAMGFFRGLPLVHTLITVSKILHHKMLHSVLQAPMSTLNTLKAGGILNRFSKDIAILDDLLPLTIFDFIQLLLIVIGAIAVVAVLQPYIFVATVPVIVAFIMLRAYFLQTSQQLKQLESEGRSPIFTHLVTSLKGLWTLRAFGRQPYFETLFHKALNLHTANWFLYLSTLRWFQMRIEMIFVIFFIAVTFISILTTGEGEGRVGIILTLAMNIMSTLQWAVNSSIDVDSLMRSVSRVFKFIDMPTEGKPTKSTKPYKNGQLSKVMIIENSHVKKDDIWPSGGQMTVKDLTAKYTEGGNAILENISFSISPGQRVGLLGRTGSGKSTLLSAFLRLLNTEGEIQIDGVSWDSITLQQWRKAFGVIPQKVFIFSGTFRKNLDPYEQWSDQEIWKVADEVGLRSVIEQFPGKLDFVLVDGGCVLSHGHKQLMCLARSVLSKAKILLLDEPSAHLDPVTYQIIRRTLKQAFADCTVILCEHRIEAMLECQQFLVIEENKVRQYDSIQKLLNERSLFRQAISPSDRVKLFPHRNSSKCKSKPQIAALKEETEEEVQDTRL
Procedure: Fisher rat thyroid (FRT) cells stably expressing ΔF508 CFTR and a halide-sensitive variant of yellow fluorescent protein (YFP) were seeded into microtiter plates and allowed to grow for 24 hours at 37° C. and 5% CO2. See Pedemonte et al., J. Clin. Invest. […] Compounds in dimethylsulfoxide (DMSO) solution were pre-diluted into cell culture medium, the medium was removed from cells, and then fresh medium containing the compounds was applied. The cells were incubated for a further 24 hours at 37° C. and 5% CO2.
Activity of CFTR was assayed by removing the medium, washing the cell monolayer with phosphate-buffered saline solution (PBS), and then applying PBS containing forskolin and genistein. After 30 min incubation at 37° C., the plates were placed in a fluorescence plate reader equipped with a reagent injector.
Corrector activity was calculated as follows. Normalized endpoint fluorescence was calculated by dividing the endpoint fluorescence after iodide injection by the initial fluorescence reading and multiplication by 100. Corrector EC50 values were calculated from the activity vs. concentration data using a 4-parameter log fit. The bottom of the curve was constrained to zero activity (DMSO control) while the slope, EC50, and top of the curve were fitted to the data. The EC50 was determined as the concentration that corresponds to the inflection point of the fitted curve.

ΔF508 CFTR [2] = biological target: T1, ΔF508 CFTR; assay: Potentiator activity, YFP halide (iodide) quenching assay in FRT cells expressing ΔF508 CFTR, 27° C. pre-incubation; assay type: cell-based; parameters: expressed in transfected cells; host or cells: Fischer rat thyroid (FRT) cells; settings: FRT cells ΔF508 CFTR/YFP, 24 hours at 27° C., compound with forskolin 30 min
Procedure: Fisher rat thyroid (FRT) cells stably expressing ΔF508 CFTR and a halide-sensitive variant of yellow fluorescent protein (YFP) were seeded into microtiter plates and allowed to grow for 24 hours at 37° C. and 5% CO2, as described above. The medium was replaced with fresh medium and the cells were incubated for a further 24 hours at 27° C. and 5% CO2 to increase the level of mutant CFTR at the cell surface.
Compounds in DMSO solution were pre-diluted into phosphate-buffered saline solution (PBS) containing forskolin. Activity of CFTR was assayed by removing the medium, washing the cell monolayer with PBS, and then applying the compounds diluted in PBS containing forskolin. After 30 min of incubation at 37° C., the plates were placed in a fluorescence plate reader equipped with a reagent injector. After measuring an initial fluorescence value, iodide-containing buffer was injected and the decrease in fluorescence was followed at excitation and emission wavelengths of 485 and 530 nm, respectively.
Potentiator activity was calculated as follows. Normalized endpoint fluorescence was calculated by dividing the endpoint fluorescence after iodide injection by the initial fluorescence reading and multiplication by 100. Potentiator EC50 values were calculated by the same method as corrector EC50 values.

| Structure (SMILES) | EC50 (ΔF508 CFTR [1]) [µM] | EC50 (ΔF508 CFTR [2]) [µM] |
| --- | --- | --- |
| CC(C)(C)n1nc(Oc2ccc(Cl)cc2)c2c(N)ncnc21 [compound 168] | > 15 | < 2 |
| CCn1nc([S+]([O-])c2cccc3ccccc23)c2c(N)ncnc21 (stereo not drawn) [compound 241] | > 15 | > 15 |
| CC(C)(C)n1nc(Oc2ccc(F)cc2)c2c(N)ncnc21 [compound 196] | 5 to 10 | < 2 |
| Nc1ncnc2c1c(-c1ccc(Cl)cc1)nn2[C@@H]1CCOC1 [compound 307] | > 15 | > 15 |
| CC(C)(C)n1nc(Oc2ncccn2)c2c(N)ncnc21 [compound 326] | > 15 | > 15 |
| CCn1nc([S+]([O-])c2cccc(C(F)(F)F)c2)c2c(N)ncnc21 (stereo not drawn) [compound 284] | > 15 | > 15 |
| CC(C)(C)n1nc(-c2ccc(O)cc2Cl)c2c(N)ncnc21 [compound 276] | 5 to 10 | < 2 |
| CCn1nc(Nc2cccc(Cl)c2)c2c(N)ncnc21 [compound 286] | > 15 | > 15 |
| CC(C)(C)n1nc(Oc2ccc(C(=O)c3ccccc3)cc2)c2c(N)ncnc21 [compound 237] | > 15 | > 15 |
| CCC(=O)Nc1ncnc2c1c(-c1ccc(Cl)cc1)nn2C(C)(C)C [compound 240] | 5 to 10 | < 2 |
| CCn1nc([S+]([O-])c2ccc(C)cc2)c2c(N)ncnc21 (stereo not drawn) [compound 291] | > 15 | > 15 |
| Nc1ncnc2c1c(-c1ccc(Cl)cc1)cn2Cc1ccccc1 [compound 327] | > 15 | < 2 |
| CC(C)(C)n1nc(Oc2ccc(OCc3ccccc3)cc2)c2c(N)ncnc21 [compound 233] | > 15 | > 15 |
| CC(C)(C)n1nc(Sc2ccccn2)c2c(N)ncnc21 [compound 245] | > 15 | 5 to 10 |
| Nc1ncnc2c1c(Cc1cccc3ccccc13)nn2C1CNC1 [compound 413] | > 15 | > 15 |
| C=CCn1cc(-c2ccc(Cl)cc2)c2c(N)ncnc21 [compound 311] | 2 to 5 | 5 to 10 |
| CCn1nc(Sc2cccc(Br)c2)c2c(N)ncnc21 [compound 236] | > 15 | < 2 |
| CC(C)(C)n1nc(-c2ccc(O)c3ccccc23)c2c(N)ncnc21 [compound 164] | > 15 | – |
| COCCn1nc(-c2ccc(Cl)cc2)c2c(N)ncnc21 [compound 171] | > 15 | – |
| COC(=O)n1nc(-c2ccc(Cl)cc2)c2c(N)ncnc21 [compound 186, 4-Amino-3-(4-chloro-phenyl)-pyrazolo[3,4-d]pyrimidine-1-carboxylic acid methyl ester] | > 15 | – |
| CCOC(=O)N1CCC(n2nc(Oc3ccccc3)c3c(N)ncnc32)CC1 [compound 386] | > 15 | – |
| CC(C)(C)n1cc(-c2cccc(Cl)c2)c2c(NC(=O)C3CCCC3)ncnc21 [compound 367] | 5 to 10 | – |
| Nc1ncnc2c1c(-c1ccc(Cl)cc1)nn2-c1ncccn1 [compound 251] | > 15 | – |
| CCNC(=O)n1nc(-c2ccc(Cl)cc2)c2c(N)ncnc21 [Compound No. 213, 4-Amino-3-(4-chloro-phenyl)-pyrazolo[3,4-d]pyrimidine-1-carboxylic acid ethylamide] | 5 to 10 | – |
| CCC(=O)Nc1ncnc2c1c(-c1cccc(Cl)c1)cn2C(C)(C)C [compound 368] | 5 to 10 | – |
| Nc1ncnc2c1c(-c1ccc(Cl)cc1)nn2CCc1ccccc1 [compound 243] | > 15 | – |
| CC(=O)Nc1ncnc2c1c(-c1ccc(Cl)cc1)cn2C(C)(C)C [compound 372] | 2 to 5 | – |
| CCn1nc(Sc2ccc(F)cc2F)c2c(N)ncnc21 [compound 258] | > 15 | – |

| Structure (SMILES) | EC50 (ΔF508 CFTR [1]) [µM] | EC50 (ΔF508 CFTR [2]) [µM] |
| --- | --- | --- |
| CCOC(=O)N1CC(n2nc([S+]([O-])c3ccccc3)c3c(N)ncnc32)C1 (stereo not drawn) [compound 405] | > 15 | – |
| Cc1ccc(-c2nn(-c3ncccn3)c3ncnc(N)c23)cc1 [Compound No. 229, 1-Pyrimidin-2-yl-3-p-tolyl-1H-pyrazolo[3,4-d]pyrimidin-4-ylamine] | > 15 | – |
| CC(C)(C)C(=O)Nc1ncnc2c1cnn2C(C)(C)C [compound 389] | > 15 | – |
| CCC(=O)Nc1ncnc2c1c(-c1ccc(Cl)cc1)cn2C(C)(C)C [compound 371] | < 2 | – |
| Nc1ncnc2c1c(Nc1ccccc1)nn2C1CCC1 [Compound No. 253, 1-Cyclobutyl-N^3-phenyl-1H-pyrazolo[3,4-d]pyrimidine-3,4-diamine] | > 15 | – |
| CCC(C)Cn1nc(-c2ccc(Cl)cc2)c2c(N)ncnc21 (stereo not drawn) [compound 101] | > 15 | – |
| CN1CCC(n2nc(-c3ccc(Cl)cc3)c3c(N)ncnc32)CC1 [compound 378] | > 15 | – |
| CC(C)(C)n1cc(-c2ccc(Cl)cc2)c2c(NC(=O)C3CCCO3)ncnc21 (stereo not drawn) [compound 373] | 5 to 10 | – |
| CC(C)(C)OC(=O)N1CCC(n2nc(Oc3ccccc3)c3c(N)ncnc32)CC1 [compound 362] | > 15 | – |
| CN1CCC(C(=O)Nc2ncnc3c2c(-c2ccc(Cl)cc2)cn3C(C)(C)C)C1 (stereo not drawn) [compound 375] | < 2 | – |
| CC(C)(C)OC(=O)N1CC(n2nc(Oc3cccc(Cl)c3)c3c(N)ncnc32)C1 [compound 357] | > 15 | – |
| CCn1nc(Sc2cccc(F)c2)c2c(N)ncnc21 [compound 219] | 2 to 5 | – |
| CCNC(=O)N1CC(n2nc(Oc3cccc(Cl)c3)c3c(N)ncnc32)C1 [compound 381] | > 15 | – |
| CCn1nc(Sc2ccncc2)c2c(N)ncnc21 [compound 249] | > 15 | – |
| CCn1cc(-c2ccc(Cl)cc2)c2c(N(C(C)=O)C(C)=O)ncnc21 [compound 211, N-Acetyl-N-[5-(4-chloro-phenyl)-7-ethyl-7H-pyrrolo[2,3-d]pyrimidin-4-yl]-acetamide] | 2 to 5 | – |
| CCn1nc(Sc2cccc(O)c2)c2c(N)ncnc21 [compound 250] | > 15 | – |
| CC(C)N1CC(n2nc(Oc3cccc(Cl)c3)c3c(N)ncnc32)C1 [compound 402] | > 15 | – |
| CC(C)(C)n1nc(-c2ccc(Cl)cc2)c2c(NC(=O)C3CCOC3)ncnc21 (stereo not drawn) [compound 393] | 5 to 10 | – |
| CC(C)C(=O)Nc1ncnc2c1c(Br)nn2C(C)(C)C [compound 423] | < 2 | – |
| CC(C)C(=O)Nc1ncnc2c1c(Oc1cccc(Cl)c1)nn2C(C)(C)C [compound 369] | 2 to 5 | – |
| CCn1c(C)c(-c2ccc(Cl)cc2)c2c(NC(=O)C3CCCC3)ncnc21 [compound 365] | 2 to 5 | – |
| CN1CC[C@H](n2nc(-c3ccc(Cl)cc3)c3c(N)ncnc32)C1 [compound 379] | > 15 | – |
| CC(=O)N(C)c1ncnc2c1c(-c1ccc(Cl)cc1)nn2C(C)(C)C [Compound No. 259, N-[1-tert-Butyl-3-(4-chloro-phenyl)-1H-pyrazolo[3,4-d]pyrimidin-4-yl]-N-methyl-acetamide] | > 15 | – |
| CC(C)(C)n1nc(Br)c2c(N(C(=O)c3ccccc3)C(=O)c3ccccc3)ncnc21 [compound 425] | 2 to 5 | – |
| CCn1nc(N(C)c2ccccc2)c2c(N)ncnc21 [Compound No. 248, 1-Ethyl-N^3-methyl-N^3-phenyl-1H-pyrazolo[3,4-d]pyrimidine-3,4-diamine] | > 15 | – |
| CC(C)(C)n1nc(-c2ccc3ccccc3c2)c2c(N)ncnc21 [compound 129] | 5 to 10 | – |
| Nc1ncnc2c1c(Oc1cccc(Cl)c1)nn2C1CCOC1 (stereo not drawn) [compound 358] | > 15 | – |
